From patent US7462600B2, “Macrolides” (Pfizer Inc, priority 2004, dated 2008)
Converted amounts (≈) assume the structure as drawn.

Key:
Format in all cases: cell-based
[1] = tested on: Streptococcus pyogenes 1079; experiment: MIC, microtiter broth dilution (NCCLS M100-S14), S. pyogenes 1079 (ermB); conditions: S. pyogenes 1079 (ermB)
How it was run: (§1)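 Susceptibility testing used microtiter trays with broth dilution. Values are minimum inhibitory concentrations interpreted under NCCLS guidance (M100-S14).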

[2] = tested on: Haemophilus influenzae 1218; experiment: MIC, microtiter broth dilution (NCCLS M100-S14), H. influenzae 1218 (susceptible); conditions: H. influenzae 1218 (susceptible)
How it was run: as §1

[3] = tested on: Streptococcus pneumoniae 1095; conditions: S. pneumoniae 1095 (ermB); microtiter broth dilution
How it was run: as §1

[4] = tested on: Streptococcus pneumoniae 1175; conditions: S. pneumoniae 1175 (mefA); microtiter broth dilution
How it was run: as §1

[5] = tested on: Streptococcus pneumoniae 1016; experiment: MIC, microtiter broth dilution (NCCLS M100-S14), S. pneumoniae 1016 (susceptible); conditions: S. pneumoniae 1016 (susceptible)
How it was run: as §1

Row | Compound | MIC S. pyogenes 1079 [1] [µg/mL] | MIC H. influenzae 1218 [2] [µg/mL] | MIC S. pneumo. 1095 [3] [µg/mL] | MIC S. pneumo. 1175 [4] [µg/mL] | MIC S. pneumo. 1016 [5] [µg/mL]
1 | CC[C@H]1OC(=O)[C@H](C)C(=O)[C@H](C)[C@@H](O[C@@H]2O[C@H](C)C[C@H](N(C)C)[C@H]2O)[C@](C)(OC)C[C@@H](C)C(=O)[C@H](C)[C@H]2N(CC3(O)CN(Cc4ccn(-c5cccnc5)n4)C3)C(=O)O[C@]12C [7.13] | >64.00 | 2 (≈ 2.34 µM) | 1 (≈ 1.17 µM) | 1 (≈ 1.17 µM) | <0.06
2 | CC[C@H]1OC(=O)[C@H](C)C(=O)[C@H](C)[C@@H](O[C@@H]2O[C@H](C)C[C@H](N(C)C)[C@H]2O)[C@](C)(OC)C[C@@H](C)C(=O)[C@H](C)[C@H]2N(CC3(O)CN(S(=O)(=O)c4cccc5cnccc45)C3)C(=O)O[C@]12C [7.14] | >64.00 | 0.25 (≈ 0.281 µM) | 1 (≈ 1.12 µM) | 0.12 (≈ 0.135 µM) | <0.06
3 | CC[C@H]1OC(=O)[C@H](C)C(=O)[C@H](C)[C@@H](O[C@@H]2O[C@H](C)C[C@H](N(C)C)[C@H]2O)[C@](C)(OC)C[C@@H](C)C(=O)[C@H](C)[C@H]2N(CC3(O)CN(S(=O)(=O)c4c(C)n[nH]c4C)C3)C(=O)O[C@]12C [7.15] | >64.00 | 2 (≈ 2.34 µM) | >64.00 | 4 (≈ 4.67 µM) | <0.06
4 | CC[C@H]1OC(=O)[C@H](C)C(=O)[C@H](C)[C@@H](O[C@@H]2O[C@H](C)C[C@H](N(C)C)[C@H]2O)[C@](C)(OC)C[C@@H](C)C(=O)[C@H](C)[C@H]2N(CC3(O)CN(S(=O)(=O)c4ccc5[nH]c(=O)oc5c4)C3)C(=O)O[C@]12C [7.16] | >64.00 | 1 (≈ 1.12 µM) | 64 (≈ 71.5 µM) | 4 (≈ 4.47 µM) | <0.06
5 | CC[C@H]1OC(=O)[C@H](C)C(=O)[C@H](C)[C@@H](O[C@@H]2O[C@H](C)C[C@H](N(C)C)[C@H]2O)[C@](C)(OC)C[C@@H](C)C(=O)[C@H](C)[C@H]2N(CC3(O)CN(C(=O)c4ccc5cccnc5n4)C3)C(=O)O[C@]12C [7.17] | >64.00 | 1 (≈ 1.17 µM) | <0.06 | 0.5 (≈ 0.585 µM) | <0.06
6 | CC[C@H]1OC(=O)[C@H](C)C(=O)[C@H](C)[C@@H](O[C@@H]2O[C@H](C)C[C@H](N(C)C)[C@H]2O)[C@](C)(OC)C[C@@H](C)C(=O)[C@H](C)[C@H]2N(CC3(O)CN(C(=O)c4ccc5nccnc5c4)C3)C(=O)O[C@]12C [7.18] | >64.00 | 2 (≈ 2.34 µM) | 0.25 (≈ 0.293 µM) | 0.25 (≈ 0.293 µM) | <0.06
7 | CC[C@H]1OC(=O)[C@H](C)C(=O)[C@H](C)[C@@H](O[C@@H]2O[C@H](C)C[C@H](N(C)C)[C@H]2O)[C@](C)(OC)C[C@@H](C)C(=O)[C@H](C)[C@H]2N(CC3(O)CN(C(=O)c4cccc5ncccc45)C3)C(=O)O[C@]12C [7.19] | >64.00 | 1 (≈ 1.17 µM) | 0.12 (≈ 0.141 µM) | 0.25 (≈ 0.293 µM) | <0.06
8 | CC[C@H]1OC(=O)[C@H](C)C(=O)[C@H](C)[C@@H](O[C@@H]2O[C@H](C)C[C@H](N(C)C)[C@H]2O)[C@](C)(OC)C[C@@H](C)C(=O)[C@H](C)[C@H]2N(CC3(O)CN(C(=O)c4cccc5cccnc45)C3)C(=O)O[C@]12C [7.20] | >64.00 | 0.5 (≈ 0.586 µM) | 2 (≈ 2.34 µM) | 1 (≈ 1.17 µM) | <0.06
9 | CC[C@H]1OC(=O)[C@H](C)C(=O)[C@H](C)[C@@H](O[C@@H]2O[C@H](C)C[C@H](N(C)C)[C@H]2O)[C@](C)(OC)C[C@@H](C)C(=O)[C@H](C)[C@H]2N(CC3(O)CN(C(=O)c4ccc5cccnc5c4)C3)C(=O)O[C@]12C [7.21] | >64.00 | 2 (≈ 2.34 µM) | 0.5 (≈ 0.586 µM) | 1 (≈ 1.17 µM) | <0.06
10 | CC[C@H]1OC(=O)[C@H](C)C(=O)[C@H](C)[C@@H](O[C@@H]2O[C@H](C)C[C@H](N(C)C)[C@H]2O)[C@](C)(OC)C[C@@H](C)C(=O)[C@H](C)[C@H]2N(CC3(O)CN(C(=O)c4ccc5ccccc5n4)C3)C(=O)O[C@]12C [7.22] | >64.00 | 1 (≈ 1.17 µM) | <0.06 | 0.12 (≈ 0.141 µM) | <0.06
11 | CC[C@H]1OC(=O)[C@H](C)C(=O)[C@H](C)[C@@H](O[C@@H]2O[C@H](C)C[C@H](N(C)C)[C@H]2O)[C@](C)(OC)C[C@@H](C)C(=O)[C@H](C)[C@H]2N(CC3(O)CN(C(=O)c4cncc5ccccc45)C3)C(=O)O[C@]12C [7.23] | >64.00 | 2 (≈ 2.34 µM) | 0.5 (≈ 0.586 µM) | 0.5 (≈ 0.586 µM) | <0.06
12 | CC[C@H]1OC(=O)[C@H](C)C(=O)[C@H](C)[C@@H](O[C@@H]2O[C@H](C)C[C@H](N(C)C)[C@H]2O)[C@](C)(OC)C[C@@H](C)C(=O)[C@H](C)[C@H]2N(CC3(O)CN(C(=O)c4cccc5ccncc45)C3)C(=O)O[C@]12C [7.24] | >64.00 | 2 (≈ 2.34 µM) | 2 (≈ 2.34 µM) | 1 (≈ 1.17 µM) | <0.06
13 | CC[C@H]1OC(=O)[C@H](C)C(=O)[C@H](C)[C@@H](O[C@@H]2O[C@H](C)C[C@H](N(C)C)[C@H]2O)[C@](C)(OC)C[C@@H](C)C(=O)[C@H](C)[C@H]2N(CC3(O)CN(C(=O)c4cnc5ncccc5c4)C3)C(=O)O[C@]12C [7.25] | >64.00 | 1 (≈ 1.17 µM) | <0.06 | 2 (≈ 2.34 µM) | <0.06
14 | CC[C@H]1OC(=O)[C@H](C)C(=O)[C@H](C)[C@@H](O[C@@H]2O[C@H](C)C[C@H](N(C)C)[C@H]2O)[C@](C)(OC)C[C@@H](C)C(=O)[C@H](C)[C@H]2N(CC3(O)CN(C(=O)c4cc5cccnc5[nH]4)C3)C(=O)O[C@]12C [7.26] | >64.00 | 0.5 (≈ 0.594 µM) | 0.12 (≈ 0.143 µM) | 0.25 (≈ 0.297 µM) | <0.06
15 | CC[C@H]1OC(=O)[C@H](C)C(=O)[C@H](C)[C@@H](O[C@@H]2O[C@H](C)C[C@H](N(C)C)[C@H]2O)[C@](C)(OC)C[C@@H](C)C(=O)[C@H](C)[C@H]2N(CC3(O)CN(C(=O)c4cc5ccncc5[nH]4)C3)C(=O)O[C@]12C [7.27] | >64.00 | 1 (≈ 1.19 µM) | <0.06 | 1 (≈ 1.19 µM) | <0.06
16 | CC[C@H]1OC(=O)[C@H](C)C(=O)[C@H](C)[C@@H](O[C@@H]2O[C@H](C)C[C@H](N(C)C)[C@H]2O)[C@](C)(OC)C[C@@H](C)C(=O)[C@H](C)[C@H]2N(CC3(O)CN(C(=O)c4nc5ccccc5[nH]4)C3)C(=O)O[C@]12C.O=CO [7.28] | >64.00 | 2 | <0.06 | 0.25 | <0.06
